Experimental data from patent publication US10017515B2, “Stable amorphous ticagrelor and a process for its preparation” (Sun Pharmaceutical Industries Limited, priority 2014, dated 2018).

Columns and labels:
[1] = Stability on storage, X-ray powder diffraction (XRPD) pattern; type: physicochemical
Experimental: The X-ray powder diffraction (XRPD) pattern was recorded using a PANalytical® X'pert PRO with X'celerator® as the detector.

[2] = Stability on storage, HPLC purity; type: physicochemical; conditions: material of Example 6
Experimental: HPLC purity (initial and at stability at a temperature of 25° C.±2° C. at relative humidity of 60% ±5% for 1, 2, 3, and 6 months): 99.8%
HPLC purity (initial and at stability at a temperature of 5° C.±3° C. for 3 and 6 months): 99.9%

[3] = 25° C.±2° C., relative humidity 60% ±5%, for 1, 2, 3, and 6 months

SMILES: CCCSc1nc(N[C@@H]2C[C@H]2c2ccc(F)c(F)c2)c2nnn([C@@H]3C[C@H](OCCO)[C@@H](O)[C@H]3O)c2n1 [amorphous ticagrelor, (1S,2S,3R,5S)-3-[7-{[(1R,2S)-2-(3,4-difluorophenyl)cyclopropyl]amino}-5-(propylthio)-3H-[1,2,3]-triazolo[4,5-d]pyrimidin-3-yl]-5-(2-hydroxyethoxy)cyclopentane-1,2-diol]
- Change in XRPD pattern on storage ([1]; 5° C.±3° C. for 3 and 6 months): no change was observed in the XRPD pattern
- Change in XRPD pattern on storage ([1]; 5° C.±3° C. for 3 and 6 months, listed as stable amorphous ticagrelor): no change in XRPD pattern
- Change in XRPD pattern on storage [1, 3]: no change was observed in the XRPD pattern
- Change in XRPD pattern on storage ([1]; 25° C.±2° C., relative humidity 60% ±5%, for 1, 2, 3, and 6 months, listed as stable amorphous ticagrelor): no change in XRPD pattern
- HPLC purity (initial and at stability) ([2]; 5° C.±3° C. for 3 and 6 months): 99.9%
- HPLC purity (initial and at stability) [2, 3]: 99.8%
